# Results from a melting point compilation (Tetko et al.).
row,Compound,melting point [°C]
1,N#CC1CSCCS1 (stereo not given),76 to 78
2,O=C(O)CCNC(=O)Cc1ccccc1,109 to 111
3,CC(C)c1nc(CC(=O)O)cs1,87 to 89
4,NCc1cc2c(cc1OC(F)F)OCO2,39 to 41
5,COCc1ccsc1C(=O)O,119 to 121
6,O=C(O)C=CC(=O)NCc1ccncc1,139 to 141
7,Nc1ccc(SCc2cccnc2)cc1,125 to 127
8,Cc1oc(-n2cccc2)c(C#N)c1C(=O)O,208 to 210
9,CS(=O)(=O)c1cc([N+](=O)[O-])c(O)c([N+](=O)[O-])c1,221 to 223
10,OCCC1CSCCN1 (stereo not given),86 to 88
11,N#Cc1ncn(CC(N)=O)n1,194 to 196
12,OCc1cc(-c2ccccc2)[nH]n1,144 to 146
13,NC(=O)c1ncon1,156 to 158
14,O=C(O)CCCN1C(=O)c2cccc3cccc(c23)C1=O,86 to 88
15,N#CC(N)c1ccc(OCc2ccccc2)cc1 (stereo not given),111 to 113
16,COC(=O)Cn1cc(C(C)=O)nn1,79 to 81
17,OC1CCN(c2cncc(Cl)n2)C1 (stereo not given),80 to 82
18,OC1CCCC1n1cccn1 (stereo not given),48 to 50
19,CNc1cccnc1N1CCCC1,105 to 107
20,NC(=O)c1cccc(C(=O)O)n1,249 to 251
21,COc1ccc(C(=O)O)cc1OCc1ccncc1,201 to 203

row,Compound,melting point [°C]
1,COC(=O)c1ccc(CCC(=O)O)cc1,113 to 115
2,CSc1nsc(N)n1,146 to 148
3,CC(C)(C)OC(=O)NCC(C)(C)C(=O)O,116 to 118
4,COCCn1nc(C)c(C(C)=O)c1C,31 to 33
5,O=C(Nc1cnccn1)C1CCCNC1 (stereo not given),141 to 143
6,O=C1CN(Cc2ccnc(Cl)c2)CCN1,143 to 145
7,Sc1nnc(C2COc3ccccc3O2)o1 (stereo not given),151 to 155
8,CC(=O)Cn1c(CCl)nc2sc3c(c2c1=O)CCCC3,132 to 134
9,N#Cc1ccc(Oc2cccc(N)c2)nc1,112 to 114
10,N=c1sccn1CC(=O)O,243 to 247
11,Cc1ncc(Br)n1C,92 to 94
12,c1cc2c(cn1)CCN2,77 to 79
13,OCc1cc(I)c(CO)cc1I,218 to 220
14,O=C(O)c1cccc(OC2CCCCC2)c1,75 to 77
15,CC(C)(C)OC(=O)NC(Cc1ccccc1)C(O)C(F)(F)F (stereo not given),149 to 151
16,O=S(=O)(F)Cc1ccccc1Cl,69 to 71
17,O=S(=O)(c1nnc[nH]1)N1CCNCC1,240 to 242
18,O=C1CC(C(F)(F)F)NCCN1 (stereo not given),136 to 138
19,O=C(O)/C=C/c1cc(Cl)c2c(c1)OCCCO2,178 to 180
20,Oc1ccccc1C1=NCCN1,199 to 201
21,Cc1nn(C)c(C)c1CC(N)=O,175 to 177

row,Compound,melting point [°C]
1,O=C(O)CCCNC(=O)c1cccnc1,211 to 213
2,c1ccc(CCNc2nc(-c3ccccc3)cs2)cc1,115 to 117
3,CCOc1cc(C=CC(=O)O)ccc1OCC(C)C,72 to 74
4,CCCCn1c(N)c(NCC)c(=O)[nH]c1=O,285 to 286
5,CN(C)C(=O)CN1CCNCC1,35 to 37
6,NC(=O)Cn1ccc(N)n1,112 to 114
7,CC(C)(C)C(O)CN (stereo not given),64 to 66
8,CC(N)=NO,118 to 120
9,NCc1ccc(OCCCOc2ccc(Cl)cc2Cl)cc1,51 to 53
10,CC(C)C(=O)N1CCCC1C(=O)O (stereo not given),118 to 120
11,O=C(O)Cc1cccc2cccnc12,130 to 132
12,CCOC(=O)N1CCc2nnc(Cl)cc2C1,106 to 108
13,NNC(=S)Nc1cccnc1,174 to 176
14,NNC(=O)CCc1cccnc1,92 to 94
15,CC(Cl)C(=O)NC1CCOc2ccccc21 (stereo not given),129 to 131
16,Nc1cccnc1-n1ccnc1,215 to 217
17,O=C(CN1CCNCC1)N1CCCc2ccccc21,64 to 66
18,O=S1(=O)CC(Cl)C(Cl)C1 (stereo not given),130 to 133
19,CC(=O)c1c(C#N)c2n(c1C)CCC2,132 to 134
20,Sc1nc(-c2cccs2)no1,108 to 110
21,NCc1nncn1-c1ccccc1,59 to 61

row,Compound,melting point [°C]
1,CC(C)C(N)c1nc(-c2nnc[nH]2)no1 (stereo not given),210 to 212
2,CC(N)c1ccc(-n2cncn2)cc1 (stereo not given),78 to 80
3,Nc1ccc(-n2cnc3ccccc32)cc1,104 to 106
4,O=C(O)c1cc(S(=O)(=O)F)cs1,191 to 193
5,CC(C)Cc1ccc(CCC(=O)O)cc1,64 to 66
6,Ic1ccccc1-c1nn[nH]n1,217 to 219
7,COc1cc2nc(N3CCN(C(=O)C4COc5ccccc5O4)CC3)nc(N)c2cc1OC (stereo not given),279 to 281
8,Cn1cc(S(=O)(=O)N2CCOCC2)cc1C(=O)NC(=O)CCl,229 to 231
9,NC(=O)CSc1nnc(S)s1,192 to 194
10,O=C(CCl)Nc1ccnn1C1CCCC1,76 to 78
11,Oc1ccc(-c2nnc[nH]2)cc1,244 to 246
12,O=Cc1cccc(OCc2cccc(C(=O)O)c2)c1,122 to 124
13,Cc1cn2c(CO)c(C)nc2s1,149 to 151
14,CC(C)(C)OC(=O)NCCCn1ccc2cc(C(=O)O)ccc21,172 to 174
15,CC(Cl)C(=O)c1c(N)n(C)c(=O)n(C)c1=O (stereo not given),140 to 142
16,CCCC(C)NC(=O)C(C)Cl (stereo not given),51 to 53
17,Cc1ccccc1C(=O)NC1CCN(C(=O)CCl)CC1,126 to 128
18,N#Cc1[nH]c(=O)n(Cc2ccccc2)c1NCc1ccccc1,140 to 142
19,Cc1nn(Cc2ccccc2)c(C)c1C=O,72 to 74

# Now from value to compound:
row,melting point [°C],Compound
1,209 to 211,Cc1ccc(C(=O)O)cc1S(C)(=O)=O
2,224 to 226,Cc1noc(C)c1COc1ccc(C(=O)O)cc1
3,271 to 272,O=C(CCl)Nc1cc(C(F)(F)F)ccc1N1CCCC1
4,78 to 80,CC1(c2cccc(N)c2)NC(=O)NC1=O (stereo not given)
5,178 to 180,NC(=O)c1ccc(NC(=O)OCC(F)(F)F)cc1Cl
6,88 to 90,CC(=O)CCc1ccc(O)c(F)c1
7,229 to 231,Cc1ccc(-c2nn(-c3ccccc3)cc2C(=O)O)cc1
8,223 to 227,Nc1nnc(-c2ccc(F)cc2)[nH]1
9,147 to 149,CC1Oc2ccc(C(=O)CBr)cc2NC1=O (stereo not given)
10,44 to 46,O=C(Nc1ccccc1Cl)OCC(F)(F)F
11,319 to 321,CN(C)S(=O)(=O)c1ccc2[nH]c(=O)c(=O)[nH]c2c1
12,275 to 277,Cc1ccc(/C=C/c2n[nH]c(S)n2)o1
13,159 to 161,CC(=O)Oc1ccc(C(=O)O)cc1OC(C)=O
14,202 to 204,Cc1nn(-c2cccc(Cl)c2)nc1C(=O)O
15,85 to 87,O=C(O)CCOc1cccc(Cl)c1
16,138 to 140,Cc1c(S(=O)(=O)Cl)sc2cc(F)ccc12
17,46 to 48,O=C(CC(F)(F)F)c1ccc(F)cc1F
18,319 to 321,N#Cc1nnc2ccccc2c1N
19,213 to 215,O=C(O)c1ccc(Cl)c(S(=O)(=O)Nc2ccccc2Cl)c1
20,204 to 206,CCCc1noc2nc(-c3ccco3)cc(C(=O)O)c12
21,162 to 164,N#Cc1cccc(S(=O)(=O)Nc2cn[nH]c2)c1

row,melting point [°C],Compound
1,91 to 93,CC(C(=O)O)c1cc2ccccc2o1 (stereo not given)
2,135 to 137,O=C(NC1CC1)C(Cl)c1ccc(F)cc1 (stereo not given)
3,148 to 152,Cc1sc(NC(=O)C2CC2)c(C(=O)O)c1C
4,63 to 65,O=C1CCCC1c1ccc(Cl)c(Cl)c1 (stereo not given)
5,158 to 160,Cc1cc(Oc2ncccc2C#N)ccc1N
6,49 to 51,COc1ccccc1-c1ccc(C=O)cc1
7,160 to 162,CN(C)S(=O)(=O)c1ccc2c(c1)CCCN2
8,61 to 63,COc1c(OC(F)F)ccc(C=O)c1[N+](=O)[O-]
9,111 to 113,O=C1CCC(O)(c2cccc(F)c2)CC1
10,259 to 261,NC(Cc1c[nH]c2ccc([N+](=O)[O-])cc12)C(=O)O (stereo not given)
11,67 to 69,O=C1C=CC(=O)N1c1cccc(C(F)(F)F)c1
12,239 to 241,COc1ccc(Nc2nc(C(=O)O)cs2)cc1
13,225 to 227,O=C(O)c1cccc2c3c([nH]c12)CCCCC3
14,73 to 75,CCOC(=O)c1ccc(OCC#N)cc1
15,266 to 268,O=C(N/N=C/c1c(O)ccc2ccccc12)c1ccncc1
16,138 to 140,Cc1ccc(S(N)(=O)=O)c(F)c1
17,86 to 88,COc1cc(C=O)ccc1OCc1csc(C)n1
18,183 to 185,COc1ccccc1OCc1ccc(C(=O)O)o1
19,89 to 91,Nc1ccn(-c2ncccc2F)n1
20,101 to 103,Cc1cc(C#N)ccc1NC1CC1
21,182 to 184,Cc1c(N)cccc1N1C(=O)CCC1=O

row,melting point [°C],Compound
1,143 to 145,NS(=O)(=O)c1c(Cl)cccc1[N+](=O)[O-]
2,142 to 144,O=C(O)COc1ccc(F)cc1Br
3,158 to 160,Cc1nnc(-c2cccc([N+](=O)[O-])c2)o1
4,128 to 130,O=S(=O)(Cl)c1cc2ccc(Cl)nc2cc1F
5,64 to 66,CC(CC(=O)O)c1ccc(F)cc1 (stereo not given)
6,249 to 251,Cc1cc(C(=O)O)nn1-c1cccc(C#N)c1
7,68 to 70,COc1c(Br)cc(Cl)cc1S(=O)(=O)Cl
8,39 to 43,CCC(=O)c1ccc(OC(F)F)cc1
9,201 to 203,O=[N+]([O-])c1ccc2nc(Br)sc2c1
10,163 to 165,COc1ccc(N)cc1S(=O)(=O)NC1CC1
11,116 to 118,Nc1ccc(Cl)c(S(=O)(=O)N2CCCC2)c1
12,209 to 211,CS(=O)(=O)CCS(=O)(=O)c1ccc(N)cc1
13,68 to 70,Cc1cc(C)c(C(=O)CCl)c(C)c1
14,179 to 181,O=C1NC(=O)C(c2ccc(Cl)cc2Cl)N1 (stereo not given)
15,139 to 141,CCOc1ccc(S(=O)(=O)NCC(=O)O)cc1
16,67 to 71,CC(=O)CC(=O)c1ccc(Cl)cc1
17,165 to 167,Cc1cc(Br)cn2c3c(nc12)CCNC3
18,158 to 160,O=C(O)CNC(=O)c1ccc2c(c1)OCO2
19,158 to 160,O=C(O)c1cc(Cl)ccc1Sc1ccc(Cl)cc1
20,133 to 135,Cc1cc2occ(CC(=O)O)c2cc1C
21,123 to 125,CC(Cl)C(=O)Nc1cc(Cl)ccc1Cl (stereo not given)
